Active and inactive are the calls of the source.
Assays:
[1] = A Cell Based Secondary Assay To Explore Cytotoxicity of Compounds that Sensitize Mycobacterium Tuberculosis to Beta-Lactam Antibiotics.; type: functional
[2] = system: Escherichia coli; experiment: microbe, parasite or virus in culture
[3] = Luminescence Cell-Based Dose Retest to Confirm Inhibitors of Cancer Stem Cells. [Related pubchem assays (depositor defined):AID2717, AID2721]; type: functional; conditions: Homo sapiens
[4] = cytotoxicity in HMLE control line with eGFP shRNA, dose response, counter-screen for HMLE_sh_ECad selective toxicity project, cell-based, HMLE_sh_eGFP, luminescence (AID 463074); type: functional, Homo sapiens;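 further: HMLE human mammary epithelial cells expressing control shRNA against eGFP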
[5] = molecular target: Dual specificity protein kinase CLK1 (Homo sapiens, UniProt P49759); experiment: CLK1 kinase inhibitors, off-target check, dose response, selectivity assay for Dyrk1A inhibitor project, biochemical, cherry-picked samples (AID 588811)
Chain of Dual specificity protein kinase CLK1 (P49759 whole entry): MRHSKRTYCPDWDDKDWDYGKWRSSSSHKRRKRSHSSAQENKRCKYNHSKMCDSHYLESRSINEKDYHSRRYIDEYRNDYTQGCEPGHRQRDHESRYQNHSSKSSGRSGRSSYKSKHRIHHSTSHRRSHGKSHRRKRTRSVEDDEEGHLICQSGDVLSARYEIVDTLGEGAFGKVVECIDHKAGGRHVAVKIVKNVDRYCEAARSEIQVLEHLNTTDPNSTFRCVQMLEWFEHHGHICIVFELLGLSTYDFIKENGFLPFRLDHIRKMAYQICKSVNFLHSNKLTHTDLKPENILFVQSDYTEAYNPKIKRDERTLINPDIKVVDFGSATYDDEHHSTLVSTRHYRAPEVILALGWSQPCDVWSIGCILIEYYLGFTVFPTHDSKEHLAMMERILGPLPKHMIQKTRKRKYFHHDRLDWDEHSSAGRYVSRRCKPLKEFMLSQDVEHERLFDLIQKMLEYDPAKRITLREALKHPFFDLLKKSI

[6] = molecular target: Glucose-6-phosphate 1-dehydrogenase (Homo sapiens, UniProt P11413); experiment: human G6PD enzyme inhibitors, dose response, selectivity assay for P. falciparum G6PD inhibitor project, biochemical, fluorescence (AID 504792); type: functional
Chain of Glucose-6-phosphate 1-dehydrogenase (P11413 whole entry): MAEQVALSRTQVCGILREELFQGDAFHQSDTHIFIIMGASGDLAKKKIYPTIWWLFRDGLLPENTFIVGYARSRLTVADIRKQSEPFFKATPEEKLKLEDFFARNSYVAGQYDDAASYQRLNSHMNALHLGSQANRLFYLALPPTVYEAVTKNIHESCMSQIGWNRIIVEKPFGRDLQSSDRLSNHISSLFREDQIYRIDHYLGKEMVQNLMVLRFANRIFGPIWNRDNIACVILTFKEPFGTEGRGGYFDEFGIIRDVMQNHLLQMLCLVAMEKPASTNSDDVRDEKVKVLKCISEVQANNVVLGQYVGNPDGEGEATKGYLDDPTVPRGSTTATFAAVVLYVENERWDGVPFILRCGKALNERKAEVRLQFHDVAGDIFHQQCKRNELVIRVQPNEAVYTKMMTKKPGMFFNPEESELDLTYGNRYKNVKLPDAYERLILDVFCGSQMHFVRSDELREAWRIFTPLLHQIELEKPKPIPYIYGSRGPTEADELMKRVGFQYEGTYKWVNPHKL

[7] = molecular target: T1, Rac GTPase-activating protein 1 (Homo sapiens, UniProt Q9H0H5); experiment: MgcRacGAP GTPase-activating activity inhibitors, confirmation, biochemical, ADP Hunter fluorescence, primary and confirmatory (AID 624330); type: functional
T1 sequence (Q9H0H5 whole entry): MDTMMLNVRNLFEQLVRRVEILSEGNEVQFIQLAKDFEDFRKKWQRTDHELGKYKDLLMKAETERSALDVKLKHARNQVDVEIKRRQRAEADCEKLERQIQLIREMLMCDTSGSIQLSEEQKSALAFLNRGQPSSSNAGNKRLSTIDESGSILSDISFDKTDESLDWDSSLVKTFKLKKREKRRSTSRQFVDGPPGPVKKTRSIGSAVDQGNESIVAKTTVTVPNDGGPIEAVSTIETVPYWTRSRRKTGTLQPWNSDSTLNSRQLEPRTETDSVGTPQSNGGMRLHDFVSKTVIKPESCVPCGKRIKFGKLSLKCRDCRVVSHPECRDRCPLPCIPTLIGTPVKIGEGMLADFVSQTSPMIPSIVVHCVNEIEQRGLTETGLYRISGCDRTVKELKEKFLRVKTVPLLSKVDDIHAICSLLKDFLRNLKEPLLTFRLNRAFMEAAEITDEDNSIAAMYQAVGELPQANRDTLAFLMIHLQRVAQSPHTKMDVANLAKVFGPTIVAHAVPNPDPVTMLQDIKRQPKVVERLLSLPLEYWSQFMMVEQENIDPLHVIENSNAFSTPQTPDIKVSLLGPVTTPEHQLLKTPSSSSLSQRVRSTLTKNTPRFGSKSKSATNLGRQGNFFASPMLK

[8] = HeLa cell cytotoxicity, dose response, cytotoxicity control for MgcRacGAP inhibitor project (AID 624300); type: functional
[9] = cytotoxicity in HEK-293T NF-kB-Luc cells, dose response, cytotoxicity control for B/T-cell NF-kB inhibitor project, cell-based, uHTS hits (AID 489019); type: functional;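 further: IC50 reflects cytotoxicity as loss of cell viability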
[10] = system: Jurkat; experiment: antigen receptor-induced NF-kB inhibitors, dose response, Jurkat, luciferase reporter, luminescence, B- and T-cell (AID 489004); type: functional, cell-based; conditions: Homo sapiens;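 further: NF-kB luciferase reporter Jurkat cells stimulated with PMA plus ionomycin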
[11] = molecular target: T2, Microphthalmia-associated transcription factor (Homo sapiens, UniProt O75030); experiment: TRPM1 promoter luciferase signal decrease, dose response, MITF inhibitor project, cell-based, SK-MEL-5, cherry-picked, set 3 (AID 493073); type: functional
T2 sequence (O75030 whole entry): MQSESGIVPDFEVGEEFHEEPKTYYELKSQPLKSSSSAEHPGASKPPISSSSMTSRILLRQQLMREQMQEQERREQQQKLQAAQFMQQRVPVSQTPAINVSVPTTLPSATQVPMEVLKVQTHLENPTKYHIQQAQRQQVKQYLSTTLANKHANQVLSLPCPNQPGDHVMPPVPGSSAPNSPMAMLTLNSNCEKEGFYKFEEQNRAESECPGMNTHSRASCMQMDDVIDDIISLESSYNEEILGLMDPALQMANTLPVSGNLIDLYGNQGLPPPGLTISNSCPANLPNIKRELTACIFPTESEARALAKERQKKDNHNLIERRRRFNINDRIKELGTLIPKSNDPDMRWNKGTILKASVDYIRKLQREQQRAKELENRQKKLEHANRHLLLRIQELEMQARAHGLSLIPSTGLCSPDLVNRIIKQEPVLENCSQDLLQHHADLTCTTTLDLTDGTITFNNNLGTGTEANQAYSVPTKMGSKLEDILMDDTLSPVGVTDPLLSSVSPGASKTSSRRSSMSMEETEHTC

[12] = molecular target: Hexokinase HKDC1 (Homo sapiens, UniProt Q2TB90); experiment: SAR analysis of small molecule inhibitors of hexokinase domain containing I (HKDC1). [Related pubchem assays (depositor defined):AID493160, AID493190]; type: functional
Chain of Hexokinase HKDC1 (Q2TB90 whole entry, the tested form may be a part): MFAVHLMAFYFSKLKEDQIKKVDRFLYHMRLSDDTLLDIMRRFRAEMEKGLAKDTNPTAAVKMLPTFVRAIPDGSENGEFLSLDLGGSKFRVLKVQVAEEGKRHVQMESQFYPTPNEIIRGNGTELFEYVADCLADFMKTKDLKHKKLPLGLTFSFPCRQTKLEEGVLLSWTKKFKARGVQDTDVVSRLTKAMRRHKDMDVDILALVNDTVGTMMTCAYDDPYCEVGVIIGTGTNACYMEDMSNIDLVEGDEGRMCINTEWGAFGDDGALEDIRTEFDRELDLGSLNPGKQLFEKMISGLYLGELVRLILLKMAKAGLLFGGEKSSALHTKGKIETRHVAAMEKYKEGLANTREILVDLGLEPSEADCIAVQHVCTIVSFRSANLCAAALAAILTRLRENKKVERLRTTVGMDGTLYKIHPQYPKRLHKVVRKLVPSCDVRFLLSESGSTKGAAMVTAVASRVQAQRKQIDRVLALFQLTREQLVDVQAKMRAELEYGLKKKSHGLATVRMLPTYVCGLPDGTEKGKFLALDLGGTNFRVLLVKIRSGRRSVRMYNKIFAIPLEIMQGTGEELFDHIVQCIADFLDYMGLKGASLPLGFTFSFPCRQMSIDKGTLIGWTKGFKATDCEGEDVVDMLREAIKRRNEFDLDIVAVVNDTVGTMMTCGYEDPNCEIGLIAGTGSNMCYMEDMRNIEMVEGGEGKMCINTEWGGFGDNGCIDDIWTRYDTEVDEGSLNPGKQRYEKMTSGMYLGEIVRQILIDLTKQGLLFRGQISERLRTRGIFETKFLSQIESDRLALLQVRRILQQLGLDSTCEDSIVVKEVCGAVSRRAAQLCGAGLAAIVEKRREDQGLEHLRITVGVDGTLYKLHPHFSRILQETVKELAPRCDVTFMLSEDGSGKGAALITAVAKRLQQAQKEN

[13] = molecular target: Hexokinase-1 (Homo sapiens, UniProt P19367); experiment: SAR analysis of small molecule inhibitors of hexokinase domain containing I (HKDC1) in the hexokinase 1 selectivity assay. [Related pubchem assays (depositor defined):AID493160, AID493190]; type: functional
Chain of Hexokinase-1 (P19367 whole entry, the tested form may be a part): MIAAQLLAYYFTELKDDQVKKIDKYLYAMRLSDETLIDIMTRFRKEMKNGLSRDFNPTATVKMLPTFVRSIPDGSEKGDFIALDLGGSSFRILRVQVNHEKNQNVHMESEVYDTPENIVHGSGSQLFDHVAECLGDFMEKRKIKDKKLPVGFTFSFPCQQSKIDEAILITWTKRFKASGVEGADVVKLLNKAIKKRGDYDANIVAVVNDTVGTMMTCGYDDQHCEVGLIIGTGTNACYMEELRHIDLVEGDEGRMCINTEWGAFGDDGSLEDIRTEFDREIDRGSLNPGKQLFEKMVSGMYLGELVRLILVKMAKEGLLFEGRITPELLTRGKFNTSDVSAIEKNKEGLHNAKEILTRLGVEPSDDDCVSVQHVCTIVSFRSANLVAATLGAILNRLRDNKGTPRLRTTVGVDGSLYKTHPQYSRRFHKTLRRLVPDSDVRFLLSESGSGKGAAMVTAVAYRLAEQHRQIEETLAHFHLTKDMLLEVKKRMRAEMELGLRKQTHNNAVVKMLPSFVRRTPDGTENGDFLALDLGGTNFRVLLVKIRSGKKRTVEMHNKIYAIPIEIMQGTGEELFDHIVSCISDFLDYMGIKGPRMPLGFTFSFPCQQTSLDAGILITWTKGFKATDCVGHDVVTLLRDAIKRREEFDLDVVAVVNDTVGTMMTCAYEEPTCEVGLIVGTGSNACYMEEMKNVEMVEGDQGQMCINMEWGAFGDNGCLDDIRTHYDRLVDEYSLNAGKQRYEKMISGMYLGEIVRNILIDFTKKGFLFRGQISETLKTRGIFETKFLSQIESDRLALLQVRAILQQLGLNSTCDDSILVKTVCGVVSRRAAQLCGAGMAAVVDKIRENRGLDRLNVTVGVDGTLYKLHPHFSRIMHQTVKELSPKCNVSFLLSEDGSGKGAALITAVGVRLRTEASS

[14] = molecular target: T3, Sentrin-specific protease 7 (Homo sapiens, UniProt Q9BQF6); experiment: SENP7 protease inhibitors, SAR follow-up, biochemical, luminescence, set 2 (AID 588600); type: functional
T3 sequence (Q9BQF6 whole entry): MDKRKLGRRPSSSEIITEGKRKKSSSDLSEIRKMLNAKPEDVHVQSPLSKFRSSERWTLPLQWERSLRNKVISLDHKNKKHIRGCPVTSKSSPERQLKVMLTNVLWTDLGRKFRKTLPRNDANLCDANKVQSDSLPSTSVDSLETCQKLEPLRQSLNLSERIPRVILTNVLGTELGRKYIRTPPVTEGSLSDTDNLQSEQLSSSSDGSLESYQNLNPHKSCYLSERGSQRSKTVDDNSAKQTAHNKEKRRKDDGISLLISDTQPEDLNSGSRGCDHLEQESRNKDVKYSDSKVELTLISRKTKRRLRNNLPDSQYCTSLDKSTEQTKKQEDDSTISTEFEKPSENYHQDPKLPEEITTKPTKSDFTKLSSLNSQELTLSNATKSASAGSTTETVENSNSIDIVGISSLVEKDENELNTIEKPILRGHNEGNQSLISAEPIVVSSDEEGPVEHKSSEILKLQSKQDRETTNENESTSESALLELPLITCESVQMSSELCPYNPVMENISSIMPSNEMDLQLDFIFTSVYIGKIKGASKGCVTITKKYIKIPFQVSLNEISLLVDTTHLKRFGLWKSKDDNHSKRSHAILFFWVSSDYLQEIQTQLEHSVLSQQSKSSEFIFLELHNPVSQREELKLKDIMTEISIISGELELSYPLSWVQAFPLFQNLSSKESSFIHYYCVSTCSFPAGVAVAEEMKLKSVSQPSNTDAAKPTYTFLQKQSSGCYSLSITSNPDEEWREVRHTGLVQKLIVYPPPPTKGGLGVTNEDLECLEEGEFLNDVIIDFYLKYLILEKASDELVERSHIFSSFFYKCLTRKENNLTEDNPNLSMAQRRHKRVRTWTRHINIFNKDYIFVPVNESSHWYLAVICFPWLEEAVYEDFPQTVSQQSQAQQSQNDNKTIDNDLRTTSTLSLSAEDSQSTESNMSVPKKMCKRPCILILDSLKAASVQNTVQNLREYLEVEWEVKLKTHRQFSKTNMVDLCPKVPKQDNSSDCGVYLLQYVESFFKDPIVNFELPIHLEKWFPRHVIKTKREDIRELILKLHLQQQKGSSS

[15] = molecular target: T4, Sentrin-specific protease 8 (Homo sapiens, UniProt Q96LD8); experiment: SENP8 protease inhibitors, SAR follow-up, biochemical, luminescence, set 2 (AID 588601); type: functional
T4 sequence (Q96LD8 whole entry): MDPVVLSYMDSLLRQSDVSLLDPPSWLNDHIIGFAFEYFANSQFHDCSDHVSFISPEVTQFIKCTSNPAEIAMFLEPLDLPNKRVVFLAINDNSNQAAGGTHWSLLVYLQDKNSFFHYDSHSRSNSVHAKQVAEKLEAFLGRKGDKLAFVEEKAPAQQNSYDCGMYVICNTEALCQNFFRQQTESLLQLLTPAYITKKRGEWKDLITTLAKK

[16] = molecular target: T5, Caspase-3 (Homo sapiens, UniProt P42574); experiment: caspase-3 inhibitors as off-family protease, SAR follow-up, selectivity assay for SENP protease inhibitor project, biochemical, luminescence, set 2 (AID 588599); type: functional
T5 sequence (P42574 whole entry): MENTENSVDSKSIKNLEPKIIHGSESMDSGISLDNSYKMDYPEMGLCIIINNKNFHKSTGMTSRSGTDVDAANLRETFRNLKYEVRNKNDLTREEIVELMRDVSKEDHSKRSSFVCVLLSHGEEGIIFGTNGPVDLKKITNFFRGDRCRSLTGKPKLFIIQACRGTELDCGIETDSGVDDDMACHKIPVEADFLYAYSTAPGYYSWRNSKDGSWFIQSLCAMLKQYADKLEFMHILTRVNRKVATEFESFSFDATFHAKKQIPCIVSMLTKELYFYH

[17] = molecular target: T6, Sentrin-specific protease 6 (Homo sapiens, UniProt Q9GZR1); experiment: SENP6 protease inhibitors, SAR follow-up, biochemical, luminescence, set 2 (AID 588598); type: functional
T6 sequence (Q9GZR1 whole entry): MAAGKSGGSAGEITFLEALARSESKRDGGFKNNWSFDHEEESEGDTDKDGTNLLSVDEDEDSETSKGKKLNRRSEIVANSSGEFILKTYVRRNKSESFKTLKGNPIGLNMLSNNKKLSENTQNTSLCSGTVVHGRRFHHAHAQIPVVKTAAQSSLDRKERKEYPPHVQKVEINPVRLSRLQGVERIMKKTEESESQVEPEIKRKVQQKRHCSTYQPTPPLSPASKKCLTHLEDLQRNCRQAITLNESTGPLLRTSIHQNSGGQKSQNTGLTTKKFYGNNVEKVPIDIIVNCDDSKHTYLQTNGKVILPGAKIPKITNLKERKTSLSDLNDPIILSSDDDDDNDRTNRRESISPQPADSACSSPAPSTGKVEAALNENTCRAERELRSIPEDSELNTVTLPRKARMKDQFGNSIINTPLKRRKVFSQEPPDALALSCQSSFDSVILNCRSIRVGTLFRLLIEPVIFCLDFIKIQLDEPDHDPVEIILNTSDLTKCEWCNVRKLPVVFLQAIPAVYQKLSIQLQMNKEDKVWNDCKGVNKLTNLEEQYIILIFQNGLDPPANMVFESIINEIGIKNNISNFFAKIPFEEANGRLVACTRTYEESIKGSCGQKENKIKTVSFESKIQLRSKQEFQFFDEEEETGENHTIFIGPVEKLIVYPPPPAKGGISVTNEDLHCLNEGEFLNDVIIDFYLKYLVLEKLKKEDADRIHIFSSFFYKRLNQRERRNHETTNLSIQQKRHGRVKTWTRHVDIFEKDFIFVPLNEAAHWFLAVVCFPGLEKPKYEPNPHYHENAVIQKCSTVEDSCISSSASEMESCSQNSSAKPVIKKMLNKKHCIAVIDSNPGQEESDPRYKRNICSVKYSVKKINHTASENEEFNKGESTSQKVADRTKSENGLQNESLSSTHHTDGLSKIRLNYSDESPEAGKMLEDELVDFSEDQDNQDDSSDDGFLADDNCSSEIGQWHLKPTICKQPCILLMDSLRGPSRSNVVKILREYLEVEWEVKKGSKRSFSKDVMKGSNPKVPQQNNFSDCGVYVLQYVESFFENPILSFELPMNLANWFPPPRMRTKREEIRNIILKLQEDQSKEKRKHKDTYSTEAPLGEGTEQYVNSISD

[18] = molecular target: Phospholipase A2 (Homo sapiens, UniProt P04054); experiment: PLA2 enzyme inhibitors, dose response, counter-screen for ATG4B inhibitor project, biochemical, set 2 (AID 588586); type: functional
Chain of Phospholipase A2 (P04054 whole entry): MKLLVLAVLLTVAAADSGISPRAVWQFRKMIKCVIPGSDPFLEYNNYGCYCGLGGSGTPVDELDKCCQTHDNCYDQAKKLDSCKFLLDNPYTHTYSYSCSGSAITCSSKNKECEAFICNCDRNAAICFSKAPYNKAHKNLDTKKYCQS

[19] = molecular target: T7, Cysteine protease ATG4B (Homo sapiens, UniProt Q9Y4P1); experiment: ATG4B protease inhibitors, dose response, biochemical, fluorescence, set 2 (AID 588584); type: functional
T7 sequence (Q9Y4P1 whole entry): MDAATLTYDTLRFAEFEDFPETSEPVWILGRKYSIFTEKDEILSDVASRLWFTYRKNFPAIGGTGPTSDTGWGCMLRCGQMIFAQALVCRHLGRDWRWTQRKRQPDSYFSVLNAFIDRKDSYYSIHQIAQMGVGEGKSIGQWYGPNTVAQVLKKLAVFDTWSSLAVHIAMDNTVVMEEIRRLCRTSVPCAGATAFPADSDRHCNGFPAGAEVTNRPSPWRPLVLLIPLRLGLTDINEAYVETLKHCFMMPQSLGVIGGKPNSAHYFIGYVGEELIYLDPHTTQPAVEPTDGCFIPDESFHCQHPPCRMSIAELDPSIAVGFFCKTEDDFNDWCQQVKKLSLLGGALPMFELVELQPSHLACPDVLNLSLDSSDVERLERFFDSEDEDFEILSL

[20] = cytotoxicity in HEK-293T cells, dose response, cytotoxicity control for TCR NF-kB inhibitor project, luminescence, T-cell screen hits (AID 489026); type: functional, cell-based;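 further: cells exposed to compound about 14 hours before the viability readout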

## Cc1nc(Nc2ccc(Cl)cc2Cl)sc1C(=O)Nc1ccccc1
[1]
  CC50: > 40 µM (active)
[2]
  AC50: 56.1 µM (active)
[3]
  AC50: 7.83 µM (active)

## O=C(Nc1ccccc1N1CCCC1)c1cccc(-c2cc3ccccc3oc2=O)c1
[4]
  AC50: 41.2 µM (active)
[3]
  AC50: 1.88 µM (active)

## Cc1ccc(CNc2ncnc3ccc(-c4ccoc4C)cc23)o1
[5]
  AC50: 0.695 µM (active)

## O=C1C(=Cc2cccc(O)c2O)SC(=S)N1CCCN1CCOCC1
[6]
  IC50: > 80 µM (inactive)
[7]
  IC50: 45.5 µM (active)
[8]
  CC50: 100 µM (active)

## O=C(COC(=O)c1cccnc1O)Nc1ccc(N2CCCCC2)cc1
[9]
  IC50: > 80 µM (inactive)
[10]
  IC50: 0.19 µM (active)
[11]
  AC50: 1.03 µM (active)

## O=c1c2ccccc2nc(/C=C/c2ccncc2)n1Cc1ccccc1
[12]
  IC50: > 80 µM (inactive)
[13]
  IC50: > 80 µM (inactive)

## COc1ccc(N2CC(C(=O)N/N=C/c3c[nH]c4ccccc34)CC2=O)cc1 (configuration not stated)
[14]
  IC50: > 99 µM (inactive)
[15]
  IC50: > 99 µM (inactive)
[16]
  IC50: > 99 µM (inactive)
[17]
  IC50: > 99 µM (inactive)

## CC1=Nc2ccccc2/C1=C\c1sc(Nc2ccc(C)cc2)nc1O
[18]
  IC50: 22.3 µM (inactive)
[19]
  IC50: 30.6 µM (inactive)
[3]
  AC50: 0.546 µM (active)
[20]
  IC50: 45.8 µM (inactive)

— ChEMBL document CHEMBL1201862, “PubChem BioAssay data set” (2004)
